Like-named read-outs stand apart in the source and are kept apart here.
What was measured:
JNK, p38 and ERK [1] = settings: cited from earlier work
[2] = tested on: human H5N1 isolate A/Thailand/KAN-1/2004; format: cell-based, influenza A virus
IFN-gamma = settings: mouse, in vivo
[3] = human, in vivo
[4] = tested on: viral ribonucleoprotein complexes (RNP)
[5] = tested on: viral proteins M1, NP, NS1 and PB1
IP10 = settings: mouse, in vivo
[6] = tested on: A/FPV/Bratislava/79 (H7N7)
[7] = tested on: poly-ADP-ribose polymerase (PARP)
JNK, p38 and ERK [8] = tested on: JNK, p38 and ERK

Row | Compound | virus-induced activation of JNK, p38 and ERK (JNK, p38 and ERK [1]) | inhibition of virus titers [2] | reduction of replication (H7N1 virus (FPV)) | reduction of replication (H5N1 virus (MB1)) | reduction of IFN-gamma m-RNA expression (IFN-gamma; ip) | reduction of IFN-gamma m-RNA expression (IFN-gamma; iv) | improvement of the symptoms, all other patients [3] | improvement of the symptoms, first day after the administration [3] | retention of viral RNP complexes [4] | accumulation of the viral proteins M1, NP, NS1 and PB1 [5] | reduction of IP10 m-RNA expression (IP10; ip) | reduction of IP10 m-RNA expression (IP10; iv) | inhibition of virus multiplication (virus titers versus time) [6] | band of the cleaved PARP (caspase activation) [7] | virus-induced activation of JNK, p38 and ERK (JNK, p38 and ERK [8])
1 | CC(=O)Oc1ccccc1C(=O)O [acetylsalicylic acid, reference compound] | is not inhibited | efficient inhibition of the virus titers of the H5N1 strain by several decimal powers |  |  |  |  |  |  |  |  |  |  |  |  | 
2 | lysine-glycine-acetylsalicylate [LG-acetylsalicylate] |  | efficient inhibition of the virus titers of the H5N1 strain by several decimal powers | more than 99% | more than 99% | 50% | 68% | improvement of the symptoms occurred on the 3rd day | significant improvement of the symptoms | efficient retention of viral RNP complexes | is not inhibited | 26% | 62% | equally efficiently inhibits the virus multiplication | efficiently reduced | is not blocked

Source: patent US9492413B2 (priority 2008, dated 2016)
